Several values for one entry are separate records, joined by “and”; a condition that tells them apart may be missing. Identical values can stand only once. Entries after “also recorded” stand apart in the source; their conditions may differ.
System: polyoma virus transformed BHK21/c13 cells, line S100T1
Test: Collocation inhibition test: clonal growth in sparsely and densely seeded areas of a cell density gradient of S100T1 cells in soft agar (Exp 13, 17, 19-26);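 further: soft agar cultures in 24-well plates with a cell density gradient in the top layer, compounds applied from DMSO stocks, clonal growth scored in sparse versus dense areas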
Details: for Growth of treated wells with smallest cell number: 42000 cells/ml; for Growth in low density (sparsely seeded) areas of treated wells: 125000-375000 cells/ml; for Significance: Exp 17 day 14; for Resulting clonal growth of treated cultures: Experiment 26
[1] = Exp 13, 4-OH-OPB 1-3 μM, Colchicine 0.01-0.1 μM
[2] = Exp 13, Low inhibitor conc. (4-OH—OPB 1 μM, Colchicine 10 nM), H: high cell density area
[3] = Exp 13, Low inhibitor conc. (4-OH—OPB 1 μM, Colchicine 10 nM), L: low cell density area
[4] = Exp 13, Medium inhibitor conc. (4-OH—OPB 3 μM, Colchicine 33 nM), H: high cell density area
[5] = Exp 13, Medium inhibitor conc. (4-OH—OPB 3 μM, Colchicine 33 nM), L: low cell density area
[6] = Exp 19, 120000 S100T1 cells/well

Structure (SMILES): CCCCC1(O)C(=O)N(c2ccccc2)N(c2ccc(O)cc2)C1=O (stereo not shown) [4-OH-OPB, 4-butyl-4-hydroxy-2(p-hydroxyphenyl)-1-phenyl-3,5-pyrazolidinedione]
- Growth in locations with high cell density [1]: did not inhibit clonal growth
- Growth in locations with low cell density (sparsely seeded cells) [1]: full inhibition on clonal growth of sparsely seeded cells; also recorded: inhibited growth in locations with low cell density even when using low doses
- Growth, summary of results after 3 days incubation [2]: +++
- Growth, summary of results after 4 days incubation [2]: +++
- Growth, summary of results after 3 days incubation [3]: +−
- Growth, summary of results after 4 days incubation [3]: +−
- Growth, summary of results after 3 days incubation [4]: +++
- Growth, summary of results after 4 days incubation [4]: +++
- Growth, summary of results after 3 days incubation [5]: −
- Growth, summary of results after 4 days incubation [5]: −
- Effect on growth in high- and low-density areas (Exp 17, 144000 S100T1 cells/well): good growth of colonies in high-density areas, but no growth in low-density areas
- Clonal growth, results read on the day 14 (Exp 17, a: close to densely seeded cell areas, Low: Colchicine 0.1, Podophyllotoxin 0.3, Etoposide 20, 4-OH—OPB 0.67 μM in wells, DMSO 1.16 μl): ++
- Clonal growth, results read on the day 14 (Exp 17, a: close to densely seeded cell areas, Medium: Colchicine 0.3, Podophyllotoxin 0.9, Etoposide 60, 4-OH—OPB 2 μM in wells, DMSO 6.8 μl): ++
- Clonal growth, results read on the day 14 (Exp 17, b: sparsely seeded areas in the same agar culture, High: Colchicine 1, Podophyllotoxin 3, Etoposide 200, 4-OH—OPB 6.7 μM in wells, DMSO 29.2 μl): −
- Clonal growth, results read on the day 14 (Exp 17, b: sparsely seeded areas in the same agar culture, Low: Colchicine 0.1, Podophyllotoxin 0.3, Etoposide 20, 4-OH—OPB 0.67 μM in wells, DMSO 1.16 μl): +
- Clonal growth, results read on the day 14 (Exp 17, b: sparsely seeded areas in the same agar culture, Medium: Colchicine 0.3, Podophyllotoxin 0.9, Etoposide 60, 4-OH—OPB 2 μM in wells, DMSO 6.8 μl): −
- Effect on growth in densely seeded areas [6]: no significant inhibition
- Inhibition of growth in sparsely seeded areas [6]: significant at all concentrations
- Clonal growth after 48 hours incubation (Exp 19, high concentration, H: high cell density part of the gradient): ++
- Clonal growth after 48 hours incubation (Exp 19, high concentration, L: low cell density part of the gradient): −
- Clonal growth after 48 hours incubation (Exp 19, low concentration (exact conc. only in figure), H: high cell density part of the gradient): ++
- Clonal growth after 48 hours incubation (Exp 19, low concentration, L: low cell density part of the gradient): −
- Clonal growth after 48 hours incubation (Exp 19, medium concentration, H: high cell density part of the gradient): ++
- Clonal growth after 48 hours incubation (Exp 19, medium concentration, L: low cell density part of the gradient): −
- Concentration with no significant growth inhibition on denser populated areas (Exp 20): 1 to 6 µM and 1 to 18 µM
- Inhibiting effect on densely seeded areas, higher doses (6-18 μM) (Exp 20): small or moderate
- Inhibiting effect on densely seeded areas, low doses (1 μM) (Exp 20): abscent
- Clonal growth after 48 hours (Exp 20, 4-OH—OPB 1 μM, cell number High 225000 (375′/ml), H: high cell density part): +++
- Clonal growth after 48 hours (Exp 20, 4-OH—OPB 1 μM, cell number High 225000 (375′/ml), L: low cell density part): −
- Clonal growth after 48 hours (Exp 20, 4-OH—OPB 1 μM, cell number Medium 75000 (125′/ml), H: high cell density part): ++(+)
- Clonal growth after 48 hours (Exp 20, 4-OH—OPB 1 μM, cell number Medium 75000 (125′/ml), L: low cell density part): −
- Clonal growth after 48 hours (Exp 20, 4-OH—OPB 6 μM, cell number High 225000 (375′/ml), H: high cell density part): +
- Clonal growth after 48 hours (Exp 20, 4-OH—OPB 6 μM, cell number High 225000 (375′/ml), L: low cell density part): −
- Clonal growth after 48 hours (Exp 20, 4-OH—OPB 6 μM, cell number Medium 75000 (125′/ml), H: high cell density part): +
- Clonal growth after 48 hours (Exp 20, 4-OH—OPB 6 μM, cell number Medium 75000 (125′/ml), L: low cell density part): −
- Clonal growth after 48 hours (Exp 20, 4-OH—OPB 18 μM, cell number High 225000 (375′/ml), H: high cell density part): +
- Clonal growth after 48 hours (Exp 20, 4-OH—OPB 18 μM, cell number High 225000 (375′/ml), L: low cell density part): −
- Clonal growth after 48 hours (Exp 20, 4-OH—OPB 18 μM, cell number Medium 75000 (125′/ml), H: high cell density part): +
- Clonal growth after 48 hours (Exp 20, 4-OH—OPB 18 μM, cell number Medium 75000 (125′/ml), L: low cell density part): −
- Growth of treated wells with smallest cell number (Exp 20): did not grow even in dense areas
- Growth of treated wells with smallest cell number (Exp 20, listed as 4-OH—OPB): Low cell numbers, 42000 cells/ml gave no
- Growth in low density (sparsely seeded) areas of treated wells (Exp 20): very strong inhibition of growth
- Growth in low density (sparsely seeded) areas of treated wells (Exp 20, listed as 4-OH—OPB): growth. 125000-375000 cells/ml gave no
- Concentration with anti clonal effect on sparsely seeded cells (Exp 20, cross-titration of cell number and dose, 48 hours): 1 µM and 1 to 18 µM
- Clonal growth (Exp 21, 117000 cells per well, Low concentration (see figure), H: area with high cell density): ++(+)
- Clonal growth (Exp 21, High concentration, H: area with high cell density): +
- Clonal growth (Exp 21, High concentration, L: area with low cell density): −
- Clonal growth (Exp 21, Low concentration, L: area with low cell density): +−
- Clonal growth (Exp 21, Medium concentration, H: area with high cell density): ++(+)
- Clonal growth (Exp 21, Medium concentration, L: area with low cell density): −
- Growth in dense areas, high concentration (Exp 22, control inhibitor): absent
- Growth in dense areas, medium concentration (Exp 22, control inhibitor): doubtful
- Effect on growth (Exp 23, 180000 S100T1 cells/well): complete inhibition of clonal growth in sparsely seeded areas
- Clonal growth in densely seeded areas at high or medium concentrations (9 and 3 μM) (Exp 24, control): reduced clonal growth
- Effect at 0.11 μM (Exp 24, control): The effect was gone
- Effect at 0.11 μM (Exp 25, control): no growth inhibition was observed
- Effect at 3 μM (Exp 25, control): substantial inhibition of the growth in densely seeded areas
- Densely seeded parts of the gradient, high concentration (Exp 26, read after 24 hours): did not affect the densely seeded parts of the gradient
- Inhibition of sparsely seeded cells, high and medium concentrations (Exp 26, read after 24 hours): nice and complete inhibition
- Sparsely seeded cells, low concentration (Exp 26, read after 24 hours): break through of clonal growth
- Significance (a: close to densely seeded cell areas, High: Colchicine 1, Podophyllotoxin 3, Etoposide 200, 4-OH—OPB 6.7 μM in wells, DMSO 29.2 μl): Probably
- Significance (a: close to densely seeded cell areas, Low: Colchicine 0.1, Podophyllotoxin 0.3, Etoposide 20, 4-OH—OPB 0.67 μM in wells, DMSO 1.16 μl): No
- Significance (a: close to densely seeded cell areas, Medium: Colchicine 0.3, Podophyllotoxin 0.9, Etoposide 60, 4-OH—OPB 2 μM in wells, DMSO 6.8 μl): No
- Significance (b: sparsely seeded areas, High: Colchicine 1, Podophyllotoxin 3, Etoposide 200, 4-OH—OPB 6.7 μM in wells, DMSO 29.2 μl): Yes
- Significance (b: sparsely seeded areas, Low: Colchicine 0.1, Podophyllotoxin 0.3, Etoposide 20, 4-OH—OPB 0.67 μM in wells, DMSO 1.16 μl): No
- Significance (b: sparsely seeded areas, Medium: Colchicine 0.3, Podophyllotoxin 0.9, Etoposide 60, 4-OH—OPB 2 μM in wells, DMSO 6.8 μl): Yes
- Clonal growth (Experiment 22, H: area with high cell density, High concentration): −
- Clonal growth (Experiment 22, H: area with high cell density, Low concentration): ++
- Clonal growth (Experiment 22, H: area with high cell density, Medium concentration): (+)
- Clonal growth (Experiment 22, L: area with low cell density, High concentration): −
- Clonal growth (Experiment 22, L: area with low cell density, Low concentration): −
- Clonal growth (Experiment 22, L: area with low cell density, Medium concentration): −
- Clonal growth (Experiment 23, A (area with high cell density), High concentration, 48 hours): (+)
- Clonal growth (Experiment 23, A (area with high cell density), Low concentration, 48 hours): ++(+)
- Clonal growth (Experiment 23, A (area with high cell density), Medium concentration, 48 hours): +
- Clonal growth (Experiment 23, B (area with low cell density), High concentration, 48 hours): −
- Clonal growth (Experiment 23, B (area with low cell density), Low concentration, 48 hours): −
- Clonal growth (Experiment 23, B (area with low cell density), Medium concentration, 48 hours): −
- Clonal growth (Experiment 24, H: area with high cell density, High concentration, 48 hours): +
- Clonal growth (Experiment 24, H: area with high cell density, Low concentration, 48 hours): ++(+)
- Clonal growth (Experiment 24, H: area with high cell density, Medium concentration, 48 hours): +
- Clonal growth (Experiment 24, H: area with high cell density, X-low concentration, 48 hours): +(+)
- Clonal growth (Experiment 24, H: area with high cell density, XX-low concentration, 48 hours): ++
- Clonal growth (Experiment 24, L: area with low cell density, High concentration, 48 hours): −
- Clonal growth (Experiment 24, L: area with low cell density, Low concentration, 48 hours): −
- Clonal growth (Experiment 24, L: area with low cell density, Medium concentration, 48 hours): −
- Clonal growth (Experiment 24, L: area with low cell density, X-low concentration, 48 hours): −
- Clonal growth (Experiment 24, L: area with low cell density, XX-low concentration, 48 hours): (+)
- Clonal growth (Experiment 25, H: area with high cell density, High concentration, after 48 hours incubation): (+)
- Clonal growth (Experiment 25, H: area with high cell density, Low concentration, after 48 hours incubation): ++(+)
- Clonal growth (Experiment 25, H: area with high cell density, Medium concentration, after 48 hours incubation): ++
- Clonal growth (Experiment 25, H: area with high cell density, X-low concentration, after 48 hours incubation): ++
- Clonal growth (Experiment 25, L: area with low cell density, High concentration, after 48 hours incubation): −
- Clonal growth (Experiment 25, L: area with low cell density, Low concentration, after 48 hours incubation): −
- Clonal growth (Experiment 25, L: area with low cell density, Medium concentration, after 48 hours incubation): −
- Clonal growth (Experiment 25, L: area with low cell density, X-low concentration, after 48 hours incubation): ++
- Resulting clonal growth of treated cultures (H: area with high cell density, High concentration, read after 24 hours): ++
- Resulting clonal growth of treated cultures (H: area with high cell density, Low concentration, read after 24 hours): ++
- Resulting clonal growth of treated cultures (H: area with high cell density, Medium concentration, read after 24 hours): ++
- Resulting clonal growth of treated cultures (L: area with low cell density, High concentration, read after 24 hours): −
- Resulting clonal growth of treated cultures (L: area with low cell density, Low concentration, read after 24 hours): (+)
- Resulting clonal growth of treated cultures (L: area with low cell density, Medium concentration, read after 24 hours): −
- Control of metastatic cells leaving tumour (ability of cells to leave a tumour, grow and infiltrate locally or grow in sparsely seeded areas, concluded from Exp 17): yes
- Control of settlement of metastatic cells (single cells or very few cells spread to distant sites, concluded from Exp 17): completely
- Toxicity for body or dense cell populations (supposed main advantages or disadvantages if used in cancer treatment, concluded from Exp 17): none or small
- Tolerating long duration of treatment (supposed, if used in cancer treatment): yes
